Each compound was assayed on HRV14 (assay: Inhibitory activity against human rhinovirus infection and replication (quantitative real-time PCR)). Conditions: Human rhinovirus sp., MRC5; 100 nmol/L test compound; MRC-5 cells infected with HRV14 at MOI=0.2; 48 hours; viral load normalized to 18s rRNA; read-out: Percent Inhibition.
Type: cell-based
Description: Evaluation of inhibitory activity against human rhinovirus infection and replication (by quantitative real-time PCR)
A required amount of a test compound was weighed off and dissolved in dimethyl sulfoxide (DMSO) to yield a 10 mmol/L stock solution. Next, the stock solution was diluted with a medium for viral infection (minimum essential medium (MEM) supplemented with 2% fetal bovine serum, 5% Tryptose phosphate broth, and 30 mmol/L MgCl2) to prepare 100 nmol/L and 1000 nmol/L of test compound solutions. MRC-5 (human fetal lung fibroblast: ATCC) was suspended at a density of 30000 cells/mL in cell culture medium (MEM supplemented with 10% fetal bovine serum), and 625 μL of the suspension per well was seeded into a 24-well cell culture plate and cultured at 37° C. in 5% CO2. After 72 hours, it was confirmed that the plate had become 80% confluent. The plate was washed with 625 μL of phosphate-buffered physiological saline (Ca/Mg-free; PBS-) once, and 625 μL of the test compound solution prepared just before use was immediately added to the plate. After 30 minutes, the medium was removed followed by addition of 187.5 μL of the test compound solution that had been prepared such that the cells were infected with HRV14 (ATCC) at multiplicity of infection (MOI)=0.2. The cells were then cultured at 35° C. in 5% CO2. After additional 2 hours, 625 μL of the test compound solution prepared just before use was added, and the cells were cultured at 35° C. in 5% CO2. After 48 hours, the cells were washed with 625 μL of PBS- once, and total RNA was extracted from the cells using RNeasy (R) plus kit (Qiagen) according to the manufacturer's instruction. Subsequently, cDNA was synthesized using High-Capacity cDNA Reverse Transcription Kit (Thermo Fisher Scientific). Finally, quantitative real-time PCR was performed in 7500 Fast Real-time PCR system (Life technologies) to measure HRV14 and 18s rRNA. The measurement protocol consisted of the initial denaturation phase at 95° C. for 20 seconds followed by 40 cycles of the denaturation step at 95° C. for 3 seconds and the annealing/elongation step at 60° C. for 30 seconds. The primers used were HRV14 forward primer set forth in SEQ ID NO: 1 and HRV14 reverse primer set forth in SEQ ID NO: 2, and the probe is set forth in SEQ ID NO: 3.
18s rRNA was measured using Eukaryotic 18S rRNA Endogenous Control (Applied Biosystems). According to Equation 1, 18s ribosomal RNA was used as an internal standard to normalize the viral load of HRV14: Viral load of HRV14=The amount of HRV14 in virus-infected cells/the amount of 18s rRNA in virus-infected cells Equation 1
Inhibitory activity of test compounds was calculated as a percent inhibition (%) according to Equation 2: Percent inhibition (%)=[the viral load of HRV in virus-infected cells in the absence of the test compound −the viral load of HRV in virus-infected cells in the presence of the test compound]/[the viral load of HRV in virus-infected cells in the absence of the test compound]×100 Equation 2
The results of using 100 nmol/L test compound solutions were shown in the tables below according to Examples. In the tables, percent inhibition was expressed as follows: percent inhibition >80%: +++, 80%≥percent inhibition >50%: ++, and 50%≥percent inhibition:+.

SMILES	inhibition at 0.1 µM
Cc1nc2sc(C(C)(C)O)nn2c1-c1cc2c(c(S(=O)(=O)CC(C)(C)O)c1)OCC2 [Example 2-83]	50 to 80%
COc1ccc(NS(=O)(=O)c2cc(-c3c(C)nc4sc(C(C)(C)O)cn34)ccc2OC)cc1 [Example 2-79]	50 to 80%
COc1c(F)cc(-c2c(C)nc3sc(C(C)(C)C)cn23)cc1S(=O)(=O)N[C@H]1CC[C@@H](O)CC1 [Example 2-3]	> 80%
COc1ccc(-c2c(C)nc3sc(C(C)(C)O)cn23)cc1S(=O)(=O)CC(C)(C)O [Example 1-42]	≤ 50%
COc1ncc(-c2c(C)nc3sc(C(C)(C)C)cn23)cc1S(=O)(=O)N[C@H]1CC[C@@H](O)CC1 [Example 1-13]	> 80%
COc1ccc(-c2c(C)nc3sc(C(C)(C)O)nn23)cc1S(=O)(=O)C1CC2(COC2)C1 [Example 2-65]	> 80%
COc1ccc(-c2c(C)nc3sc(C(O)(C4CC4)C4CC4)nn23)cc1S(=O)(=O)C(C)(C)C#N [Example 7-2]	> 80%
COc1ncc(-c2c(C)nc3sc(C4CC4)nn23)cc1S(=O)(=O)N[C@H]1CC[C@@H](O)CC1 [Example 1-16]	50 to 80%
COc1ccc(-c2c(C)nc3sc(C(C)(C)O)nn23)cc1S(=O)(=O)C1(CO)CC1 [Example 4-4]	50 to 80%
COc1ccc(-c2c(C)nc3sc(C(C)(C)OC)nn23)cc1S(=O)(=O)N[C@H]1CC[C@H](O)CC1 [Example 1-28]	> 80%
Cc1nc2sc(C(C)(C)O)nn2c1-c1ccc(C(F)(F)F)c(S(=O)(=O)C(C)(C)C(N)=O)c1 [Example 6-2]	≤ 50%
COc1ccc(-c2c(C)nc3sc(C(C)(C)O)nn23)cc1S(=O)(=O)Cc1ccc(N)cc1 [Example 26]	≤ 50%
Cc1nc2sc(C3CC3)nn2c1-c1ccc(C(F)(F)F)c(S(=O)(=O)CCO)c1 [Example 2-15]	50 to 80%
COc1ccc(-c2c(C)nc3sc(C(C)(C)O)nn23)cc1S(=O)(=O)Nc1ccc(C#N)cc1 [Example 21-20]	≤ 50%
CCOC(=O)C(C)(C)c1nn2c(-c3ccc(OC)c(S(=O)(=O)N[C@H]4CC[C@@H](O)CC4)c3)c(C)nc2s1 [Example 1-22]	> 80%
COc1ccc(-c2c(C)nc3sc(C(C)(C)O)nn23)cc1S(=O)(=O)[C@H]1C[C@@H](C(C)(C)O)C1 [Example 2-71]	> 80%
COc1ccc(-c2c(C)nc3sc(C(C)(C)O)cn23)cc1S(=O)(=O)Nc1ccccc1O [Example 2-81]	> 80%
COc1ccc(-c2c(C)nc3sc(C(C)(C)O)nn23)cc1S(=O)(=O)N[C@H]1C[C@@H](CO)C1 [Example 21-9]	≤ 50%
COc1c(F)cc(-c2c(C)nc3sc(C(C)(C)O)nn23)cc1S(=O)(=O)CC(C)(C)O [Example 2-43]	50 to 80%
COc1ccc(-c2c(C)nc3sc(C(C)(C)O)nn23)cc1S(=O)(=O)C(C)(C)C#N [Example 7-1]	> 80%
Cc1nc2sc(C(C)(C)C)cn2c1-c1ccc(C#N)c(S(=O)(=O)N[C@H]2CC[C@@H](O)CC2)c1 [Example 1-10]	> 80%
COc1ccc(-c2c(C)nc3sc(C(C)(C)O)nn23)cc1S(=O)(=O)C1CCC2(CC1)OCCO2 [Example 2-68]	50 to 80%
COc1ccc(-c2c(C)nc3sc(C(C)(C)O)nn23)cc1S(C)(=O)=O [Example 2-13]	≤ 50%
COc1ccc(-c2c(C)nc3sc(C(C)(C)O)cn23)cc1S(=O)(=O)Nc1ccc(O)cc1 [Example 21-18]	50 to 80%
Cc1nc2sc(C(C)(C)O)nn2c1-c1ccc(OC(F)(F)F)c(S(=O)(=O)N[C@H]2CC[C@H](O)CC2)c1 [Example 2-7]	> 80%
COc1ccc(-c2c(C)nc3sc(C(C)(C)O)nn23)cc1S(=O)(=O)N[C@H]1CC[C@](C)(O)CC1 [Example 21-12]	50 to 80%
COc1ccc(-c2c(C)nc3sc(C(C)(C)O)cn23)cc1S(=O)(=O)Nc1ccc(F)cc1 [Example 21-19]	50 to 80%

SMILES	inhibition at 0.1 µM
COc1ccc(-c2c(C)nc3sc(C(C)(C)O)nn23)cc1S(=O)(=O)NC12CCC(O)(CC1)CC2 [Example 21-11]	≤ 50%
Cc1nc2sc(C(C)(C)O)nn2c1-c1ccc(C(F)(F)F)c(S(=O)(=O)CC2(CO)COC2)c1 [Example 2-35]	50 to 80%
COc1ccc(-c2c(C)nc3sc(C(C)(C)O)nn23)cc1S(=O)(=O)Nc1cccnc1 [Example 2-85]	≤ 50%
COc1ccc(-c2c(C)nc3sc(C4(C#N)CC4)nn23)cc1S(=O)(=O)NC(C)(C)CO [Example 1-39]	≤ 50%
COc1ccc(-c2c(C)nc3sc(C(C)(C)O)nn23)cc1S(=O)(=O)C1COC1 [Example 2-49]	≤ 50%
Cc1nc2sc(C(C)(C)O)nn2c1-c1ccc(C(F)(F)F)c(S(=O)(=O)NC23CCC(O)(CC2)CC3)c1 [Example 2-10]	> 80%
Cc1nc2sc(C(C)(C)O)nn2c1-c1ccc(C(F)(F)F)c(S(=O)(=O)NC2(CO)COC2)c1 [Example 2-31]	> 80%
Cc1nc2sc(C(C)(C)O)nn2c1-c1ccc(O)c(S(=O)(=O)CC(C)(C)O)c1 [Example 16]	≤ 50%
COc1ccc(-c2c(C)nc3sc(C(C)(C)O)nn23)cc1S(=O)(=O)NC(C)(C)CO [Example 1-36]	50 to 80%
COC(=O)C(C)(C)S(=O)(=O)c1cc(-c2c(C)nc3sc(C(C)(C)O)nn23)ccc1OC [Example 1-41]	50 to 80%
COc1ccc(-c2c(C)nc3sc(C(O)(C4CC4)C4CC4)nn23)cc1S(=O)(=O)C(C)(C)C(N)=O [Example 6-3]	> 80%
Cc1nc2sc(C(C)(C)O)nn2c1-c1cnc(C(F)(F)F)c(S(=O)(=O)N[C@H]2CC[C@H](O)CC2)c1 [Example 2-11]	≤ 50%
Cc1nc2sc(C(C)(C)O)nn2c1-c1ccc(OC(F)(F)F)c(S(=O)(=O)N[C@H]2CC[C@@H](O)CC2)c1 [Example 1-17]	> 80%
COc1ncc(-c2c(C)nc3sc(C(C)(C)C#N)nn23)cc1S(=O)(=O)N[C@H]1CC[C@@H](O)CC1 [Example 1-18]	50 to 80%
COc1ccc(-c2c(C)nc3sc(C(C)(C)O)nn23)cc1S(=O)(=O)NC1(C)CCC(O)CC1 (centres unmarked) [Example 21-14]	> 80%
COc1ccc(-c2c(C)nc3sc(C(O)(C4CC4)C4CC4)nn23)cc1S(=O)(=O)CC(C)(C)C#N [Example 2-98]	> 80%
COc1ccc(-c2c(C)nc3sc(C(C)(C)O)nn23)cc1S(=O)(=O)[C@H]1C[C@@](C)(O)C1 [Example 2-55]	≤ 50%
COc1ccc(-c2c(C)nc3sc(C(C)(C)O)nn23)cc1S(=O)(=O)[C@]1(C)C[C@H](O)C1 [Example 2-75]	≤ 50%
COc1ccc(-c2c(C)nc3sc(C(C)(C)O)cn23)cc1S(=O)(=O)N(C)[C@H]1CC[C@@H](O)CC1 [Example 24]	≤ 50%
C=C(C)c1cn2c(-c3ccc(OC)c(S(=O)(=O)N[C@H]4CC[C@@H](O)CC4)c3)c(C)nc2s1 [Example 25]	50 to 80%
COc1ccc(-c2c(C)nc3sc(C4(O)CCCC4)cn23)cc1S(=O)(=O)N[C@H]1CC[C@@H](O)CC1 [Example 1-44]	≤ 50%
Cc1nc2sc(C(C)(C)O)nn2c1-c1cccc(S(=O)(=O)CC(C)(C)O)c1 [Example 2-38]	≤ 50%
Cc1nc2sc(C(O)(C3CC3)C3CC3)nn2c1-c1ccc(C(F)(F)F)c(S(=O)(=O)CC(C)(C)O)c1 [Example 2-87]	> 80%
COc1ccc(-c2c(C)nc3sc(C(C)(C)O)nn23)cc1S(=O)(=O)NCC(O)C(F)(F)F (centres unmarked) [Example 21-16]	50 to 80%
COc1ccc(-c2c(C)nc3sc(C(C)(C)O)nn23)cc1S(=O)(=O)CC(C)(C)C#N [Example 2-60]	≤ 50%
Cc1nc2sc(C(C)(C)O)nn2c1-c1ccc(C(F)(F)F)c(S(=O)(=O)NC2(CO)CC2)c1 [Example 2-20]	> 80%

From patent publication US11952387B2, “Bicyclic heteroaromatic ring derivative” (priority 2018, dated 2024)
